According to patent US20070021360A1, “Compositions, formulations and kit with anti-sense oligonucleotide and anti-inflammatory steroid and/or obiquinone for treatment of respiratory and lung disesase” (priority 2001, published 2007):

Columns and labels:
[1] = system: G6PDH; assay: Enzymatic assay of purified G6PDH; details: in vitro; compared to control
Experimental: All experiments were repeated 4 times.
A second group was added different concentrations of a CoQ of long side chain (in triplicate), and a third group received a CoQ of short side chain (in triplicate), both at various doses in the μM range.
The reaction was started by addition of the enzyme, and the increase in absorbance at 340 nm was measured for 5 minutes. Each data point was conducted in triplicate, and the full experiment was repeated 4 times.

[2] = system: HT-29 SF cells; assay: DHEA effect on cell growth (Coulter counter)
Experimental: Cell cultures, HT-29 SF cells, which represent a subline of HY-29 cells (ATCC, Rockville, Md.) and are adapted for growth in completely defined serum-free PC-1 medium (Ventrex, Portland, Me.), were obtained. Stock cultures were maintained in this medium at 37° in a humidified atmosphere containing 5% CO2.

[3] = system: HT-29 SF cells; assay: DHEA effect on cell cycle distribution (flow cytometry); type: cell-based, human; details: 25, 50, or 200 μM DHEA; 24, 48, 72 hours
Experimental: Cells were plated at 10^5/60-rm dish in duplicate. […] Cultures were trypsinized following […] and fixed and stained using a modification of a procedure of Bauer et al., Cancer Res., 46, 3173-3178 (1986). Briefly, cells were collected by centrifugation and resuspended in cold phosphate-buffered saline. Cells were fixed in 70% ethanol, washed, and resuspended in phosphate-buffered saline.
After 24, 48, and 72 hours, cells were harvested, fixed in ethanol, and stained with propidium iodide, and the DNA content/cell was determined by flow cytometric analysis. The percentage of cells in G1, S, and G2M phases was calculated using the Cellfit cell cycle analysis program. S phase is marked by a quadrangle for clarity. Representative histograms from duplicate determinations are shown. The experiment was repeated three times.
A transient increase in G2M phase cells was apparent after 48 hours.

[4] = system: allergic rabbits; assay: Allergen-induced bronchial hyperresponsiveness (PC50 Histamine) in allergic rabbits; type: in vivo, rabbit; details: compared to mismatched control; from PC50 Histamine value; p<0.05
Experimental: Each allergic rabbit was administered histamine by aerosol to determine their baseline hyperresponsiveness. Aerosols of either saline or hitamine were generated using a DeVilbiss nebulizer (DeVilbiss, Somerset, Pa.) for 30 seconds and then for 2 minutes at each dose employed. The ultrasonic nebulizer produced aerosol droplets of which 80% were <5 micron in diameter. The histamine aerosol was administered in increasing concentrations (0.156 to 80 mg/ml) and measurements of pulmonary function were made after each dose. The […] was then determined by calculating the concentration of histamine (mg/ml) required to reduce the Cdyn 50% from baseline (PC50 Histamine)

[5] = target: T1, adenosine A1 receptor (Oryctolagus cuniculus, UniProt P34970); details: mismatch controls; Nyce & Metzger (1997); cited from earlier work
T1 construct: Airway smooth muscle tissue was dissected from each rabbit and a membrane fraction prepared; from tissue; host or cells: rabbit airway smooth muscle, crude plasma membranes
T1 sequence (P34970 1-328): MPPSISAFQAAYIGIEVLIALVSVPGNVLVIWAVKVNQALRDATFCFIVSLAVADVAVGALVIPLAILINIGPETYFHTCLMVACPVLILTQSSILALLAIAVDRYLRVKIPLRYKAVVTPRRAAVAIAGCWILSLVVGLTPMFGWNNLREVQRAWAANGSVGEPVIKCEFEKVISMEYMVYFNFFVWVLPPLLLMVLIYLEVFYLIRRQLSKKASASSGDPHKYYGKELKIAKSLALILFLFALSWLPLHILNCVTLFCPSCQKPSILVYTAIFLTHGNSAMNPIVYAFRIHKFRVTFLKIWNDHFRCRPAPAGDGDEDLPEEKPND

[6] = system: allergic rabbits; assay: Allergen-induced airway obstruction in allergic rabbits; type: in vivo, rabbit; details: compared with mismatched control; from area under the plotted curve; p<0.05
[7] = system: adenosine A1 receptor; assay: Adenosine-induced bronchoconstriction (PC50 Adenosine) in allergic rabbits; type: in vivo; details: allergic rabbits
Experimental: A fortuitous hoology between the rabbit and human DNA sequences within the adenosine A1 gene overlapping the initiation codon permitted the use of the phosphorothioate anti-sense oligonucleotides initially designed for use against the human adenosine A1 receptor in a rabbit model. Neonatal New Zealand white Pasteurella-free rabbits were immunized intraperitoneally within 24 hours of birth with 312 antigen units/ml house dust mite (D. farinae) extract (Berkeley Biologicals, Berkeley, Calif.), mixed with 10% kaolin. Immunizations were repeated weekly for the first month and then biweekly for the next 2 months. At 3-4 months of age, eight sensitized rabbits were anesthetized and relaxed with a mixture of ketamine hydrochloride (44 mg/kg) and acepromazine maleate (0.4 mg/kg) administered intramuscularly. The rabbits were then laid supine in a comfortable position on a small molded, padded animal board and intubated with a 4.0-mm intratracheal tube (Mallinkrodt, Inc., Glens Falls, N.Y.). A polyethylene catheter of external diameter 2.4 mm with an attached latex balloon was passed into the esophagus and maintained at the same distance (approximately 16 cm) from the mouth throughout the experiments. The intratracheal tube was attached to a heated Fleisch pneumotachograph (size 00; DOM Medical, Richmond, Va.), and flow was measured using a Validyne differential pressure transducer (Model DP-45161927; Validyne Engineering Corp., Northridge, Calif.) driven by a Gould carrier amplifier (Model 11-4113; Gould Electronic, Cleveland, Ohio). The esophageal balloon was attached to one side of the differential pressure transducer, and the outflow of the intratracheal tube was connected to the opposite side of the pressure transducer to allow recording of transpulmonary pressure. Flow was integrated to give a continuous tidal volume, and measurements of total lung resistance (RL) and dynamic compliance (Cdyn) were calculated at isovolumetric and flow zero points, respectively, using an automated respiratory analyzer (Model 6; Buxco, Sharon, Conn.). Animals were randomized and on Day 1 pretreatment values for PC50 were obtained for aerosolized adenosine. Anti-sense (HAdA1AS) or mismatched control (HAdA1MM) oligonucleotides were dissolved in sterile physiological saline at a concentration of 5000 μg (5 mg) per 1.0 ml. […] Aerosols of either saline, adenosine, or anti-sense or mismatch oligonucleotides were generated by an ultrasonic nebulizer (DeVilbiss, Somerset, Pa.), producing aerosol droplets 80% of which were smaller than 5:m in diameter. In the first arm of the experiment, four randomly selected allergic rabbits were administered anti-sense oligonucleotide and four the mismatched control oligonucleotide. On the morning of the third day, PC50 values (the concentration of aerosolized adenosine in mg/ml required to reduce the dynamic compliance of the bronchial airway 50% from the baseline value) were obtained and compared to PC50 values obtained for these animals prior to exposure to oligonucleotide. Following a 1 week interval, animals were crossed over, with those previously administered mismatch control oligonucleotide now administered anti-sense oligonucleotide, and those previously treated with anti-sense oligonucleotide now administered mismatch control oligonucleotide. Treatment methods and measurements were identical to those employed in the first arm of the experiment. […] For the purpose of calculation, PC50 values for these animals were set at 20 mg/ml. The values given therefore represent a minimum figure for anti-sense effectiveness. Actual effectiveness was higher.
Aerosols of either adenosine (0-20 mglnml), or anti-sense or one of two mismatch oligonucleotides (5 mg/ml) were separately prepared with an ultrasonic nebulizer (Model 646, DeVilbiss, Somerset, Pa.), which produced aerosol droplets, 80% of which were smaller than 5:m in diameter. […]

Molecule	inhibition of activity of purified G6PDH [1]	inhibition of growth ([2]; 0-200 μM DHEA, 0-72 hours)	exposure time after which cell number was reduced compared to controls ([2]; 12.5 μM DHEA)	exposure time after which cell number was reduced compared to controls ([2]; 200 μM DHEA)	exposure time after which cell number was reduced compared to controls ([2]; 25 or 50 μM DHEA)	effect on cell cycle distribution [3]	inhibition of allergen-induced BHR [4]	effect upon any of the targeted receptors (A1, A2 or B2) [5]	inhibition of allergen-induced airway obstruction [6]	PC50 Adenosine ([7]; Total Dose 0.2 mg)	PC50 Adenosine ([7]; Total Dose 2.0 mg)	PC50 Adenosine ([7]; Total Dose 20 mg)	effect on PC50 Adenosine value ([7]; cross-over experiment, 20 mg total aerosolized oligo)
C[C@]12CC[C@H](O)CC1=CC[C@@H]1[C@@H]2CC[C@]2(C)C(=O)CC[C@@H]12 [DHEA, 3β-hydroxyandrost-5-en-17-one]	72%	time- and dose-dependent inhibition of growth	72 h	24 h	48 h	G1 block							
5′-GTAGGTGGCGGGCAAGGCGGG-3′ (antisense GTAGGTGGCGGGCAAGGCGGG; phosphorothioate, further chemistry not given here) [Oligo A1MM2, mismatch control for anti-sense oligo I, reference compound]							complete lack of effect	absolutely no effect	complete lack of effect	2.51 ± 0.46 mg Adenosine	3.13 ± 0.71 mg Adenosine	3.25 ± 0.34 mg Adenosine	no effect
